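Test compounds were applied to cells in 96-well plates for 48 hours at 5 doses. TGI: total growth inhibition.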
What was measured:
Test in all cases: growth of human tumour cells (NCI), 48 h
786-0 renal = system: 786-0 renal
A498 renal = system: A498 renal
A549 NSCLC = system: A549 NSCLC
ACHN renal = system: ACHN renal
BT-549 breast = system: BT-549 breast
CAKI-1 renal = system: CAKI-1 renal
CCRF-CEM leukemia = system: CCRF-CEM leukemia
COLO 205 colon = system: COLO 205 colon
DLD-1 colon = system: DLD-1 colon
DMS 114 small cell lung = system: DMS 114 small cell lung
DU-145 prostate = system: DU-145 prostate
EKVX NSCLC = system: EKVX NSCLC
HCC-2998 colon = system: HCC-2998 colon
HCT-116 colon = system: HCT-116 colon
HCT-15 colon = system: HCT-15 colon
HL-60(TB) leukemia = system: HL-60(TB) leukemia
HOP-18 NSCLC = system: HOP-18 NSCLC
HOP-62 NSCLC = system: HOP-62 NSCLC
HOP-92 NSCLC = system: HOP-92 NSCLC
HS 578T breast = system: HS 578T breast
HT29 colon = system: HT29 colon
IGROV1 ovarian = system: IGROV1 ovarian
K-562 leukemia = system: K-562 leukemia
KM12 colon = system: KM12 colon
KM20L2 colon = system: KM20L2 colon
LOX IMVI melanoma = system: LOX IMVI melanoma
LXFL 529 NSCLC = system: LXFL 529 NSCLC
M14 melanoma = system: M14 melanoma
M19-MEL melanoma = system: M19-MEL melanoma
MALME-3M melanoma = system: MALME-3M melanoma
MCF7 breast = system: MCF7 breast
MDA-MB-231 breast = system: MDA-MB-231 breast
MDA-MB-435 = system: MDA-MB-435
MDA-N = system: MDA-N
MOLT-4 leukemia = system: MOLT-4 leukemia
NCI-H226 lung = system: NCI-H226 lung
NCI-H23 lung = system: NCI-H23 lung
NCI-H460 lung = system: NCI-H460 lung
NCI-H522 lung = system: NCI-H522 lung
NCI/ADR-RES ovarian = system: NCI/ADR-RES ovarian
OVCAR-3 ovarian = system: OVCAR-3 ovarian
OVCAR-4 ovarian = system: OVCAR-4 ovarian
OVCAR-5 ovarian = system: OVCAR-5 ovarian
OVCAR-8 ovarian = system: OVCAR-8 ovarian
PC-3 prostate = system: PC-3 prostate
RPMI-8226 leukemia = system: RPMI-8226 leukemia
RXF 393 renal = system: RXF 393 renal
RXF-631 renal = system: RXF-631 renal
SF-268 CNS = system: SF-268 CNS
SF-295 CNS = system: SF-295 CNS
SF-539 CNS = system: SF-539 CNS
SK-MEL-2 melanoma = system: SK-MEL-2 melanoma
SK-MEL-28 melanoma = system: SK-MEL-28 melanoma
SK-MEL-5 melanoma = system: SK-MEL-5 melanoma
SK-OV-3 ovarian = system: SK-OV-3 ovarian
SN12C renal = system: SN12C renal
SNB-19 CNS = system: SNB-19 CNS
SNB-75 CNS = system: SNB-75 CNS
SNB-78 CNS = system: SNB-78 CNS
SR leukemia = system: SR leukemia
SW-620 colon = system: SW-620 colon
T-47D breast = system: T-47D breast
TK-10 renal = system: TK-10 renal
U251 CNS = system: U251 CNS
UACC-257 melanoma = system: UACC-257 melanoma
UACC-62 melanoma = system: UACC-62 melanoma
UO-31 renal = system: UO-31 renal
XF 498 CNS = system: XF 498 CNS
DMS 273 small cell lung = system: DMS 273 small cell lung

Work on CCN(CC)c1ccc(/C=C2/C[N+](C)(C)C/C(=C/c3ccc(N(CC)CC)cc3)C2=O)cc1 yielded a TGI (786-0 renal) of 13.6 µM, a TGI (A498 renal) of over 42.2 µM and a TGI (A549 NSCLC) of over 100 µM. The TGI (ACHN renal) was over 100 µM, the TGI (BT-549 breast) was 3.43 µM and the TGI (CAKI-1 renal) was over 100 µM. It also gave a TGI (CCRF-CEM leukemia) of 3.42 µM, a TGI (COLO 205 colon) of 2.69 µM and a TGI (DLD-1 colon) of over 100 µM. For the same compound, the TGI (DMS 114 small cell lung) was 3.38 µM, the TGI (DU-145 prostate) was over 50.6 µM and the TGI (EKVX NSCLC) was 75.7 µM. The TGI (HCC-2998 colon) was 6.25 µM, the TGI (HCT-116 colon) was 7.77 µM and the TGI (HCT-15 colon) was over 100 µM. The TGI (HL-60(TB) leukemia) was 2.16 µM, the TGI (HOP-18 NSCLC) was 25 µM and the TGI (HOP-62 NSCLC) was 40.7 µM. The TGI (HOP-92 NSCLC) was 4.8 µM, the TGI (HS 578T breast) was 11.2 µM and the TGI (HT29 colon) was 5.2 µM. It also gave a TGI (IGROV1 ovarian) of 6.57 µM, a TGI (K-562 leukemia) of 7.91 µM and a TGI (KM12 colon) of 2.91 µM. The TGI (KM20L2 colon) was 12.9 µM, the TGI (LOX IMVI melanoma) was 6.16 µM and the TGI (LXFL 529 NSCLC) was 2.81 µM. It also gave a TGI (M14 melanoma) of 7.07 µM, a TGI (M19-MEL melanoma) of 2.84 µM and a TGI (MALME-3M melanoma) of 4.38 µM. For the same compound, the TGI (MCF7 breast) was 6.04 µM, the TGI (MDA-MB-231 breast) was 5.87 µM and the TGI (MDA-MB-435) was 3.69 µM. It also gave a TGI (MDA-N) of 3.56 µM, a TGI (MOLT-4 leukemia) of 4.83 µM and a TGI (NCI-H226 lung) of 17.2 µM. The TGI (NCI-H23 lung) was 10.3 µM, the TGI (NCI-H460 lung) was 15 µM and the TGI (NCI-H522 lung) was 7.74 µM. It also gave a TGI (NCI/ADR-RES ovarian) of over 100 µM, a TGI (OVCAR-3 ovarian) of 7.31 µM and a TGI (OVCAR-4 ovarian) of 13.8 µM. The TGI (OVCAR-5 ovarian) was 50.4 µM, the TGI (OVCAR-8 ovarian) was 14.7 µM and the TGI (PC-3 prostate) was 35.7 µM. It also gave a TGI (RPMI-8226 leukemia) of 1.24 µM, a TGI (RXF 393 renal) of 10.3 µM and a TGI (RXF-631 renal) of over 100 µM. The TGI (SF-268 CNS) was 11.2 µM, the TGI (SF-295 CNS) was over 90.6 µM and the TGI (SF-539 CNS) was 6.19 µM. For the same compound, the TGI (SK-MEL-2 melanoma) was 3.92 µM, the TGI (SK-MEL-28 melanoma) was 4.09 µM and the TGI (SK-MEL-5 melanoma) was 3.62 µM. It also gave a TGI (SK-OV-3 ovarian) of over 78.5 µM, a TGI (SN12C renal) of 16.4 µM and a TGI (SNB-19 CNS) of 19.4 µM. It also gave a TGI (SNB-75 CNS) of 8.88 µM, a TGI (SNB-78 CNS) of 9.62 µM and a TGI (SR leukemia) of 3.52 µM. The TGI (SW-620 colon) was 13.5 µM, the TGI (T-47D breast) was 11.3 µM and the TGI (TK-10 renal) was 61.8 µM. It also gave a TGI (U251 CNS) of 9.24 µM, a TGI (UACC-257 melanoma) of 6 µM and a TGI (UACC-62 melanoma) of 4.84 µM. The TGI (UO-31 renal) was over 100 µM and the TGI (XF 498 CNS) was 6.59 µM.

For COC(=O)C1CCC(Nc2ccc(C)cc2C)=N1 (stereo not drawn), the TGI (786-0 renal) was over 100 µM, the TGI (A498 renal) was over 100 µM and the TGI (A549 NSCLC) was over 100 µM. For the same compound, the TGI (ACHN renal) was over 100 µM, the TGI (CAKI-1 renal) was over 100 µM and the TGI (CCRF-CEM leukemia) was over 100 µM. It also gave a TGI (COLO 205 colon) of over 100 µM, a TGI (DLD-1 colon) of over 100 µM and a TGI (DMS 273 small cell lung) of over 100 µM. The TGI (EKVX NSCLC) was over 100 µM, the TGI (HCC-2998 colon) was over 100 µM and the TGI (HCT-116 colon) was over 100 µM. The TGI (HCT-15 colon) was over 100 µM, the TGI (HL-60(TB) leukemia) was over 100 µM and the TGI (HOP-18 NSCLC) was over 100 µM. It also gave a TGI (HOP-62 NSCLC) of over 100 µM, a TGI (HOP-92 NSCLC) of over 100 µM and a TGI (HT29 colon) of over 100 µM. It also gave a TGI (IGROV1 ovarian) of over 100 µM, a TGI (K-562 leukemia) of over 100 µM and a TGI (KM12 colon) of over 100 µM. The TGI (KM20L2 colon) was over 100 µM, the TGI (LOX IMVI melanoma) was over 100 µM and the TGI (LXFL 529 NSCLC) was over 100 µM. It also gave a TGI (M14 melanoma) of over 100 µM, a TGI (M19-MEL melanoma) of over 100 µM and a TGI (MALME-3M melanoma) of over 100 µM. It also gave a TGI (MOLT-4 leukemia) of over 100 µM, a TGI (NCI-H226 lung) of over 100 µM and a TGI (NCI-H23 lung) of over 100 µM. The TGI (NCI-H460 lung) was over 100 µM, the TGI (NCI-H522 lung) was over 100 µM and the TGI (OVCAR-3 ovarian) was over 100 µM. For the same compound, the TGI (OVCAR-4 ovarian) was over 100 µM, the TGI (OVCAR-5 ovarian) was over 100 µM and the TGI (OVCAR-8 ovarian) was over 100 µM. The TGI (RPMI-8226 leukemia) was over 100 µM, the TGI (RXF-631 renal) was over 100 µM and the TGI (SF-268 CNS) was over 100 µM. For the same compound, the TGI (SF-295 CNS) was over 100 µM, the TGI (SK-MEL-2 melanoma) was over 100 µM and the TGI (SK-MEL-28 melanoma) was over 100 µM. It also gave a TGI (SK-MEL-5 melanoma) of over 100 µM, a TGI (SK-OV-3 ovarian) of over 100 µM and a TGI (SN12C renal) of over 100 µM. For the same compound, the TGI (SNB-19 CNS) was over 100 µM, the TGI (SNB-75 CNS) was over 100 µM and the TGI (SNB-78 CNS) was over 100 µM. It also gave a TGI (SW-620 colon) of over 100 µM, a TGI (TK-10 renal) of over 100 µM and a TGI (U251 CNS) of over 100 µM. It also gave a TGI (UACC-257 melanoma) of over 100 µM, a TGI (UACC-62 melanoma) of over 100 µM and a TGI (UO-31 renal) of over 100 µM. The TGI (XF 498 CNS) was over 100 µM.
